Four molecules from patent publication US20200062789A1, “HYDROXAMIC ACID PRODRUG COMPOUND OR SALT THEREOF, LYOPHILIZED FORMULATION, LPXC INHIBITOR, AND ANTIBACTERIAL AGENT” (FUJIFILM Toyama Chemical Co., Ltd., priority 2017, published 2020) can be followed below.

In data set [1] the test system is Pseudomonas aeruginosa (S-2838 strain). Briefly: Multidrug-resistant Pseudomonas aeruginosa urinary tract infection model test in mice. Type of data set: in vivo. As to conditions: ICR female mice, 25 mg/kg once by tail vein 2 hours after infection, kidney count on the day after infection. As to the method: The mice used were ICR female SPF mice (5 weeks old: 5 mice per group). The inoculum solution was prepared by suspending a clinical isolate of Pseudomonas aeruginosa (S-2838 strain) cultured overnight at 37° C. on a Mueller-Hinton agar plate in sterile saline. The infection was induced by inoculating 0.2 mL (about 10^3 CFU/mouse) of the inoculum solution into the urethra of each mouse. The test compound was dissolved in sterile saline and given once by tail vein administration 2 hours after infection. The count of viable cells in the kidney on the day after infection was recorded and the mean value was calculated.

A short description of data set [2]: Stability in 100 mmol/L tris-hydrochloric acid buffer (pH 7.4). As to conditions: compared to Example 1. Type of data set: physicochemical.
The nature of data set [3]: Solubility test (visual dissolution in physiological saline; saturated solubility). The class given is physicochemical. As to conditions: saline or isotonic, thermodynamic from solid, 1.2 mg taken, dissolution confirmed visually. As to the method: The compounds of Examples 1 and 2 were taken in an amount of 1.2 mg, physiological saline was added during stirring until dissolution could be confirmed visually, and the solubility was calculated.

Turning to `CNC(=O)[C@@](C)(C(=O)NO)N(C)C(=O)c1ccc(C#Cc2ccc([C@H](O)COP(=O)(O)O)cc2)cc1` [Comparative Example 1, (S)-2-hydroxy-2-(4-((4-(((S)-1-(hydroxyamino)-2-methyl-3-(methylamino)-1,3-dioxopropan-2-yl)(methyl)carbamoyl)phenyl)ethynyl)phenyl)ethyl phosphate], the “decrease of count of viable cells in the kidney compared with control group” value in data set [1] is reported as < 4 log CFU/kidney.

In the case of `CNC(=O)[C@@](C)(C(=O)NOC(=O)CCC(=O)O)N(C)C(=O)c1ccc(C#Cc2ccc([C@H](O)CO)cc2)cc1` [Comparative Example 2, 4-(((S)-2-(4-((4-((S)-1,2-dihydroxyethyl)phenyl)ethynyl)-N-methylbenzamide)-2-methy 1-3-(methylamino)-3-oxopropanamide)oxy)-4-oxobutanoic acid], the “stability in buffer (decomposition to compound A)” value in data set [2] is listed as “easily decomposed”. In general, solubility refers to the concentration that dissolves in the medium under given conditions. Read a high solubility as a readily soluble substance. Turning to `CNC(=O)[C@@](C)(C(=O)NOP(=O)(O)O)N(C)C(=O)c1ccc(C#Cc2ccc([C@H](O)CO)cc2)cc1` [Example 1, (((S)-2-(4-((4-((S)-1,2-dihydroxyethyl)phenyl)ethynyl)-N-methylbenzamide)-2-methyl-3-(methylamino)-3-oxopropanamide)oxy)phosphonic acid], the solubility in data set [3] was > 100 mg/mL.

Turning to `CNC(=O)[C@@](C)(C(=O)NOCOP(=O)(O)O)N(C)C(=O)c1ccc(C#Cc2ccc([C@H](O)CO)cc2)cc1` [Example 2, (((S)-2-(4-((4-((S)-1,2-dihydroxyethyl)phenyl)ethynyl)-N-methylbenzamide)-2-methyl-3-(methylamino)-3-oxopropanamide)oxy)methyl dihydrogen phosphate], in data set [3], the solubility was > 100 mg/mL.
